Laboratory results taken from patent US9781930B2, “3′-substituted-abscisic acid derivatives” (Valent BioSciences Corporation, priority 2014, dated 2017).

Tested on: Arabidopsis thaliana seed
Assay: Seed germination inhibition assay for testing Examples 1-28 and 47-50
Format: in vivo
Design: key to Arabidopsis seed germination inhibition potency: + + + +: The other derivatives were scored by potency relative to S-ABA.; (S)-ABA potency = + + +.; + +: The other derivatives were scored by potency relative to S-ABA.; ++: The other derivatives were scored by potency relative to S-ABA.; +: The other derivatives were scored by potency relative to S-ABA.; −− = no effect
Details: 0.01-10.0 ppm in 96-well plates, scored on day 7, relative to (S)-ABA
Method: Seed Germination Inhibition Assay for Testing Examples 1-28 and 47-50 To determine the germination inhibition potency of the (S)-ABA derivatives, germination assays were performed with the model plant Arabidopsis thaliana. Arabidopsis seed was sterilized by shaking for five minutes in 200-proof ethanol, and followed by shaking for five minutes in a 10% bleach solution. The seeds were then washed five times in sterile, distilled, de-ionized water and suspended in 0.1% phytoagar. The tubes containing the seeds were wrapped in aluminum foil and stratified at 4° C. for two days. All compounds were tested at eight concentrations of 0 (DMSO control), 0.01, 0.03, 0.1, 0.3, 1.0, 3.0, and 10.0 ppm in 96-well plates. Each plate contained eight replicates of each concentration of the test compound and eight replicates of (S)-ABA at 0.1 ppm as the positive control. As an additional set of controls, each run of the assay also contained one plate dosed with (S)-ABA covering a range of concentrations up to 10 ppm. For each compound, 10× stock solutions corresponding to each of the tested concentrations were prepared in distilled and de-ionized water containing 5% DMSO. The stock test solution (10 μL) was added to each well according to the scheme described above, and 90 μL of ½× Murashige and Skoog media containing 1.2% Bactoagar was then added to each well (final DMSO concentration was 0.5%). When the media solidified, ten to fifteen sterile stratified Arabidopsis seeds were distributed into each well using a repeat pipettor. The plates were sealed with surgical tape and placed in a growth chamber running diurnal cycles of 12 hours of light at 24° C. and 12 hours of darkness at 19° C. The plates were scanned on days 3 through 7, and scored on day 7. The 3′-substituted-(S)-ABA derivatives were scored on ability to inhibit germination relative to the potency of (S)-ABA. The results are summarized below in “Table 1: Arabidopsis seed germination inhibition activity of (S)-ABA derivatives.”

COc1cccc(CC2=C(C)[C@](O)(/C=C/C(C)=C\C(=O)O)C(C)(C)CC2=O)c1 [Example 26, (2Z,4E)-5-((S)-3-(3-methoxybenzyl)-1-hydroxy-2,6,6-trimethyl-4-oxocyclohex-2-en-1-yl)-3-methylpenta-2,4-dienoic acid]
Arabidopsis seed germination inhibition potency: −−

COc1cc([N+](=O)[O-])ccc1CC1=C(C)[C@](O)(/C=C/C(C)=C\C(=O)O)C(C)(C)CC1=O [Example 27, (2Z,4E)-5-((S)-1-hydroxy-3-(2-methoxy-4-nitrobenzyl)-2,6,6-trimethyl-4-oxocyclohex-2-en-1-yl)-3-methylpenta-2,4-dienoic acid]
Arabidopsis seed germination inhibition potency: −−

CC1=C(Cc2nc3ccccc3s2)C(=O)CC(C)(C)[C@@]1(O)/C=C/C(C)=C\C(=O)O [Example 28, (2Z,4E)-5-((S)-3-(benzo[d]thiazol-2-ylmethyl)-1-hydroxy-2,6,6-trimethyl-4-oxocyclohex-2-en-1-yl)-3-methylpenta-2,4-dienoic acid]
Arabidopsis seed germination inhibition potency: −−

CC#CCC1=C(C)[C@](O)(/C=C/C(C)=C\C(=O)O)C(C)(C)CC1=O [Example 47, (2Z,4E)-5-((S)-3-(but-2-yn-1-yl)-1-hydroxy-2,6,6-trimethyl-4-oxocyclohex-2-en-1-yl)-3-methylpenta-2,4-dienoic acid]
Arabidopsis seed germination inhibition potency: ++

CCC#CCC1=C(C)[C@](O)(/C=C/C(C)=C\C(=O)O)C(C)(C)CC1=O [Example 48, (2Z,4E)-5-((S)-1-hydroxy-2,6,6-trimethyl-4-oxo-3-(pent-2-yn-1-yl)cyclohex-2-en-1-yl)-3-methylpenta-2,4-dienoic acid]
Arabidopsis seed germination inhibition potency: +

CC1=C(C/C=C/C(=O)O)C(=O)CC(C)(C)[C@@]1(O)/C=C/C(C)=C\C(=O)O [Example 49, (2Z,4E)-5-((S)-3-((E)-3-carboxyallyl)-1-hydroxy-2,6,6-trimethyl-4-oxocyclohex-2-en-1-yl)-3-methylpenta-2,4-dienoic acid]
Arabidopsis seed germination inhibition potency: −−

CC1=C(C/C=C/c2ccccc2)C(=O)CC(C)(C)[C@@]1(O)/C=C/C(C)=C\C(=O)O [Example 50, (2Z,4E)-5-((S)-3-cinnamyl-1-hydroxy-2,6,6-trimethyl-4-oxocyclohex-2-en-1-yl)-3-methylpenta-2,4-dienoic acid]
Arabidopsis seed germination inhibition potency: +
